Results as given in patent US20100036122A1, “CLEAVAGE AGENT SELECTIVELY ACTING ON SOLUBLE ASSEMBLY OF AMYLOIDOGENIC PEPTIDE OR PROTEIN” (priority 2006, published 2010).
Entries after “also recorded” stand apart in the source; their conditions may differ.

Key:
Format in all cases: biochemical
[1] = biological target: Aβ40 (Homo sapiens, UniProt P05067); experiment: Cleavage of oligomers of Aβ40 by cleavage agent (MALDI-TOF MS, cleavage yield); conditions: for cleavage of Aβ40 (MALDI-TOF mass spectrum): pH 7.50, 36 hours
Sequence of Aβ40 (P05067 672-711 limits assumed): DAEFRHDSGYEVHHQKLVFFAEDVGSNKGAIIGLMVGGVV
Protocol: (§1) The activity of each cleavage agent was tested at 37° C. and pH 7.50 (0.050 M phosphoric acid) in Eppendorf tubes unless indicated otherwise in the Examples.
(§2) To generate the monomeric form of Aβ40 or Aβ42 in the early reaction stage, Aβ40 or Aβ42 was treated with NaOH prior to exposure to the pH 7.50 reaction medium (Fezoui, Y.; Hartley, D. M.; Harper, J. D.; Khurana, R.; Walsh, D. M.; Condron, M. M.; Selkoe, D. J.; Lansbury, P. T. Jr.; Fink, A. L.; Teplow, D. B. Amyloid 2000, 7, 166-178). The results for measurement of the fraction of Aβ40 (◯) or Aβ42 ([…]) (initial concentration: 4.0 μM) passing the membrane with cut-off MW of 10000 after incubation at pH 7.50 and 37° C. for various periods of self-assembly are illustrated in FIG. 5. According to the results, most (>80%) of Aβ42 (MW 4514) passes the filter immediately after exposure to the pH 7.50 medium. During the filtration through the membrane which takes about 10 minutes, large oligomers which cannot pass the membrane may have been generated. Therefore, it appears that most of the Aβ42 passed the membrane.
(§3) Unless specifically described in the Examples, cleavage reaction was initiated by adding Aβ40 or Aβ42 to the solution containing the cleavage agent, and the cleavage yield was estimated through the following process.
(§4) A product solution formed by the cleavage reaction was passed through the membrane with a cut-off MW of 10000 to remove aggregates of Aβ40 or Aβ42. Thereafter, the cleavage products were separated by HPLC, and the total amount of the cleavage products was estimated. The cleavage product was degraded to amino acids by alkaline hydrolysis, and then, the total amount of amino acids was estimated with fluorescamine to determine the total amount of the cleavage product. The cleavage yield was calculated by comparing the amount of the cleavage product with the initially added amount of the Aβ40 or Aβ42.
(§5) The cleavage yield measured by incubating Aβ40 or Aβ42 (4.0 μM) with various concentrations of cleavage agent A at pH 7.50 and 37° C. for 36 hours is illustrated in FIG. 8. The cleavage yields of Aβ40 or Aβ42 in the Examples are the mean value measured by using 4˜6 different reaction mixtures. The relative standard deviation (% RSD) of each cleavage yield is 5-15%.

[2] = biological target: Aβ42 (Homo sapiens, UniProt P05067); experiment: Cleavage of oligomers of Aβ42 by cleavage agent (MALDI-TOF MS, cleavage yield); conditions: for cleavage of Aβ42 (MALDI-TOF mass spectrum): cleavage agent 0.50-1.0 μM, pH 7.50, 36 hours
Sequence of Aβ42 (P05067 672-713 limits assumed): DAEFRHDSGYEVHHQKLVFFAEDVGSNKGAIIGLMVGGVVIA
Protocol: as §1, §2, §3, §4, §5

[3] = biological target: T1, amylin (Am; human islet amyloid polypeptide) (Homo sapiens, UniProt P10997); experiment: Cleavage of oligomers of amylin by cleavage agent (MALDI-TOF MS, cleavage yield); conditions: for cleavage of Am (MALDI-TOF mass spectrum of HPLC-purified products) / cleavage products of Am (MALDI-TOF MS): cleavage agent 0.38-7.1 μM (figure legends), pH 7.50, 36 hours
T1 construct: Am is a cyclic oligopeptide consisting of 37 amino acid residues
T1 sequence (P10997 34-70 limits assumed): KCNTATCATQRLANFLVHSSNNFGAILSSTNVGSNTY
Protocol: as §1
MALDI-TOF mass spectrum of the products purified with HPLC after incubating Am (4.0 μM) with cleavage agent A is illustrated in FIG. 12. In this Example and hereafter, MALDI-TOF mass spectra of cleavage products for Am were taken after purification with HPLC by the method described below.
Unless specifically described in the Examples, cleavage reaction of Am was initiated by adding Am to the solution containing the cleavage agent, and the cleavage yield was estimated through the following process. The product solution obtained from the cleavage reaction was passed through the membrane (cut-off MW=10000) to remove Am aggregates, and then the cleavage product was separated by HPLC. The total amount of the cleavage product was quantified. The cleavage product was converted to amino acids by alkaline hydrolysis, and the total amount of amino acids was estimated by using fluorescamine to determine the amount of the cleavage product. The cleavage yield was calculated by comparing the amount of cleavage product with that of the initial amount of Am.
The cleavage yields measured after reacting Am (4.0 μM) with various concentrations of cleavage agent A at 37° C. and pH 7.50 for 36 hours are illustrated in FIG. 13. The cleavage yields of Am in the Examples are the mean value measured by using 4[…]6 different reaction mixtures. The relative standard deviation of each cleavage yield is 5-15%.

[4] = biological target: T2, α-synuclein (Syn) (Homo sapiens, UniProt P37840, M5L); experiment: Cleavage of oligomer of α-synuclein by cleavage agent (cleavage yield); conditions: Syn 70 μM, pH 7.50, 37° C.; for cleavage yields of Syn: various concentrations of cleavage agent, 3 days
T2 construct: α-synuclein (Syn) is a protein consisting of 140 amino acids; histidine tag (LEHHHHHH) (C); made in house
Protocol: as §1
In the Examples, the slightly modified derivatives of α-synuclein (Syn) were used as a substrate to obtain α-synuclein (Syn) by gene recombination. To facilitate purification by the nickel chelate method, histidine tag (LEHHHHHH) was adhered to C-terminus. To avoid interference in the transcription, leucine instead of methionine was incorporated as the 5th amino acid residue.
Unless the context clearly indicates otherwise, Syn cleavage was initiated by adding Syn to the solution of the cleavage agent. The cleavage yield was calculated according to the following method.
A product solution formed by the cleavage reaction was passed through the membrane with the cut-off MW of 10000 to remove Syn and its assemblies. Then, the cleavage products were separated by HPLC, and the total amount of the cleavage products was estimated. The cleavage product was degraded to amino acids through alkaline hydrolysis. The total amount of the amino acids was then estimated with fluorescamine to quantify the total amount of the cleavage product. The cleavage yield was calculated by comparing the amount of the cleavage product with the initially added amount of Syn.
The cleavage yields measured by incubating Syn (70 μM) with various concentrations of cleavage agent A at pH 7.50 and 37° C. for 3 days are illustrated in FIG. 15. The cleavage yields in the Examples are the mean value measured by using 4˜6 different reaction solutions. Since the MW of Syn used in the Examples is about 15000, some of the protein fragments formed by the cleavage of Syn might have been too large to pass through the membrane with cut-off MW of 10000.

[5] = test system: scrambled Aβ42; experiment: Reaction with control peptides: scrambled Aβ42; conditions: scrambled Aβ42 4.0 μM, cleavage agent 3.0 μM, pH 7.50, 37° C., 36 hours
Protocol: The following control experiment was performed on cleavage agent A. The peptides or proteins used in the control experiment are not amyloidogenic. […] Two kinds of scrambled Aβ42, having the same 42 amino acids as Aβ42 in a scrambled sequence ([…], […]) (4.0 μM), were not cleaved by incubation with cleavage agent A (3.0 μM) at pH 7.50 and 37° C. for 36 hours.

[6] = test system: horse heart myoglobin, bovine serum γ-globulin, bovine serum albumin, human serum albumin, egg white lysozyme, egg white ovalbumin, bovine pancreas insulin; experiment: Reaction with control proteins (not amyloidogenic); conditions: each protein 2-7 μM, cleavage agent 5.0 μM, pH 7.50, 37° C., 36 hours
[7] = Aβ40 4.0 μM, cleavage agent 3.0 μM, 37° C.
[8] = Aβ42 4.0 μM, pH 7.50, 37° C., 36 hours
[9] = Am 4.0 μM, cleavage agent 1.0 μM, 36 hours, 37° C., pH 7.50
[10] = concluded from preincubation and filtration experiments
[11] = Aβ40 4.0 μM, cleavage agent 3.0 μM, 36 hours, 37° C., pH 7.50
[12] = Aβ42 4.0 μM, cleavage agent 3.0 μM, 36 hours, 37° C., pH 7.50

| Compound | cleavage of Aβ40 (MALDI-TOF mass spectrum) [1, 7] | cleavage of Aβ42 (MALDI-TOF mass spectrum) ([2]; Aβ42 4.0 μM, 37° C.) | concentration of cleavage agent at which cleavage reaction was detected [2, 8] [nM] | plateau value of the yield for cleavage of Aβ42 at high concentration of the cleavage agent [2, 8] | cleavage of Am (MALDI-TOF mass spectrum of HPLC-purified products) ([3]; Am 4.0 μM, 37° C.) | cleavage products of Am (MALDI-TOF MS) ([3]; Am 4.0 μM, 37° C.) | cleavage yields of Syn [4] | cleavage of two kinds of scrambled Aβ42 (control) [5] | cleavage of non-amyloidogenic control proteins [6] | other results |
| --- | --- | --- | --- | --- | --- | --- | --- | --- | --- | --- |
| CC(Nc1nc(NCc2ccc(Cl)cc2)nc(OCCN(C)c2ccc(-c3nc4ccccc4s3)cc2)n1)C(=O)NCCCN1CCNCCNCCNCC1.O.O.[Co+3] (centres unmarked) [cleavage agent B] | cleaved | cleaved | 30 to 50 | ~17% | cleaved | Am20-37, Am19-37 and Am17-37 | fairly large | the same as those obtained in Example 1 | the same as those obtained in Example 1 | plateau value of the yield for cleavage of Aβ40 at high concentration of the cleavage agent ([1]; Aβ40 4.0 μM, pH 7.50, 37° C., 36 hours): about 12%; cleavage yield against reaction time ([3]; Am 4.0 μM, cleavage agent 1.0 μM, 37° C., pH 7.50): does not increase even if the reaction period is increase beyond 36 hours; amounts of cleavage products after preincubation of Am for 6 hours compared with no preincubation [3, 9]: not much smaller; cleavage of Am after preincubation of Am for 36 hours or longer [3, 9]: little cleavage reaction occurred; assembly species of Am cleaved (selectivity) [3, 10]: oligomers of Am instead of the monomer, protofibrils, and fibrils of Am are cleaved |
| CC(C)CC(Nc1nc(OCCN(C)c2ccc(-c3nc4ccccc4s3)cc2)nc(N2CCCCC2)n1)C(=O)NCCCN1CCNCCNCCNCC1.O.O.[Co+3] (centres unmarked) [cleavage agent F] | – | – | – | – | cleaved | Am19-37 and Am17-37; also recorded: Am20-37, Am17-37 and Am14-37 | – | the same as those obtained in Example 1 | the same as those obtained in Example 1 | – |
| CCCCNc1nc(NCCCN2CCNCCNCCNCC2)nc(NCc2ccc(-c3nc4ccccc4o3)cc2)n1.O.O.[Co+3] [cleavage agent A] | cleaved | cleaved | 100 | about 30% | cleaved | Am20-37 and Am19-37 | fairly large | not cleaved | cleavage reaction was not detected | cleavage of Aβ40 after preincubation of Aβ40 for 24 hours [1, 11]: considerable peptide cleavage; effect of preincubation of Aβ40 for periods longer than 24 hours on cleavage yield [1, 11]: reduces the cleavage yield; yield for cleavage of Aβ40 after preincubation for 3-18 hours [1, 11]: does not decrease considerably; assembly species of Aβ40 cleaved (selectivity) [1, 10]: protofibrils or fibrils of Aβ40 are not cleaved; cleavage of Aβ42 after preincubation of Aβ42 for 24 hours [2, 12]: little cleavage was observed; cleavage yield after preincubation of Aβ42 for 3-6 hours compared with no preincubation [2, 12]: not much smaller; assembly species of Aβ42 cleaved (selectivity) [2, 10]: the oligomer is cleaved by the cleavage agent A and not the Aβ42 monomer, protofibril, or fibril |
| Co^III complex of cyclen [reference compound] | – | – | – | – | – | – | – | – | – | cleavage of Aβ40 by complex lacking the recognition site ([1]; complex 20 μM, Aβ40 4.0 μM, pH 7.50, 37° C., 36 hours): No peptide cleavage was observed; cleavage of Aβ42 by complex lacking the recognition site ([2]; complex 20 μM, Aβ42 4.0 μM, pH 7.50, 37° C., 36 hours): No peptide cleavage was observed; cleavage of Am by complex lacking the recognition site ([3]; complex 20 μM, Am 4.0 μM, pH 7.50, 37° C., 36 hours): No peptide cleavage was observed; cleavage of Syn by complex lacking the recognition site ([4]; complex 20 μM, 36 hours): No peptide cleavage was observed |
| Cc1ccccc1CNc1nc(NCCC(=O)NCCCN2CCNCCNCCNCC2)nc(OCCN(C)c2ccc(-c3nc4ccccc4s3)cc2)n1.O.O.[Co+3] [cleavage agent D] | – | cleaved | 50 to 100 | about 12% | cleaved | Am20-37 and Am19-37 | – | the same as those obtained in Example 1 | the same as those obtained in Example 1 | cleavage of Aβ40 (MALDI-TOF MS data) ([1]; Aβ40 4.0 μM, cleavage agent 0.1-10 μM, pH 7.50, 37° C., 36 hours): did not reveal any evidence of cleavage |
| CCCCNc1nc(NCCCN2CCNCCNCCNCC2)nc(OCCN(C)c2ccc(-c3nc4ccccc4s3)cc2)n1.O.O.[Co+3] [cleavage agent E] | – | – | – | – | cleaved | Am17-37, Am16-37 and Am13-37 | – | the same as those obtained in Example 1 | the same as those obtained in Example 1 | – |
